“Also recorded” adds a separate entry of the source.
Experiments:
[1] = H2O2 formation with hematoporphyrin IX sensitization and visible light (sensitization and quenching assays); assay type: biochemical; conditions: D2O or NaN3 (40 mM)
Protocol: Sensitization and Quenching Assays. A solution of 31127 (100 μl of horse IgG, 6.7 μM) in PBS (pH 7.4, 4% dimethylformamide) and hematoporphyrin IX (40 μM) was placed in proximity to a strip light. Hydrogen peroxide concentration was determined as described herein. […]
Assay for H2O2 production as a function of the efficiency of ^1O2 formation via ^3O2 sensitization with hematoporphyrin IX: The assay is a modification of a procedure developed by H. Sakai and co-workers, Proc. SPE-Int. Soc. Opt. Eng., 2371, 264 (1995). In brief, the horse poly-IgG (1 mg/mL) in PBS (50 mM, pH 7.4) and hematoporphyrin IX (40 μM) is irradiated with white light from a transilluminator. Aliquots are removed (50 μL) and the concentration of H2O2 and 3-aminophthalic acid measured simultaneously. H2O2 concentration was measured by the amplex red assay (Zhou et al., Anal. Biochem., 253, 162 (1997)). 3-Aminophthalic acid concentration was measured by reversed-phase HPLC on a Hitachi D4000 series machine with an Adsorbosphere-C18 column, a UV detector at 254 nm, and a mobile phase of acetonitrile/water (0.1% TFA) of 18:82 at 1 mL/min (retention time of luminol=7.4 min and 3-aminophthalic acid 3.5 min). The concentrations of luminol and 3-aminophthalic acid were determined by comparison of peak height and area to control samples. […]

[2] = Production of hydrogen peroxide by immunoglobulins and proteins under UV irradiation (Amplex Red assay); assay type: biochemical; conditions: for ability of non-immunoglobulin proteins to reduce ^1O2 / generate H2O2: irradiation in PBS
Protocol: All assays were carried out in PBS (10 mM phosphate/160 mM sodium chloride, pH 7.4). Commercial protein solution samples were dialyzed into PBS as necessary. Amplex Red hydrogen peroxide assay kits (A-12212) were obtained from Molecular Probes.
Antibody/Protein Irradiation. Unless otherwise stated, the assay solution (100 μl, 6.7 μM protein in PBS, pH 7.4) was added to a glass vial, sealed with a screw-cap, and irradiated with either UV (312 nm, […] Fischer-Biotech transilluminator) or visible light.
Quantitative Assay for Hydrogen Peroxide. An aliquot (20 μl) from the protein solution was removed and added into a well of a 96-well microtiter plate (Costar) containing reaction buffer (80 μL). Working solution (100 μl/400 μM Amplex Red reagent ½ units/ml horseradish peroxidase) was then added, and the plate was incubated in the dark for 30 min. The fluorescence of the well components was then measured using a CytoFluor Multi well Plate Reader (Series 4000, PerSeptive Biosystems, Framingham, Mass.; Ex/Em: 530/580 nm). The hydrogen peroxide concentration was determined using a standard curve. All experiments were run in duplicate, and the rate is quoted as the mean of at least two measurements.

[3] = system: E. coli; test: Bactericidal assay, E. coli (strain not singled out or both serotypes); assay type: cell-based
Protocol: (§1) In a typical experiment, a culture of E. coli (in log phase growth, OD600=0.2-0.3) was repeatedly pelleted (3×3,500 rpm) and resuspended in PBS (pH 7.4). The PBS suspended cells were then added to glass vials and cooled to 4° C. Hematoporphyrin IX (40 μM) and antibody (20 μM) were added and the vials were either placed on a light box (visible light, 2.8 mW cm^−2) or in the dark at 4° C. and incubated for 1 h. Viability was determined by recovery of colony forming units (CFUs) on agar plates. Each experiment was performed at least in duplicate.
as §1, with “washed in PBS by pelleting” for “pelleted”, “rpm) the cells” for “rpm)”, “resuspending them” for “resuspended”

[4] = Consumption of hydrogen peroxide by catalase (peroxide stick test); assay type: biochemical; conditions: 1 min after addition of catalase
Protocol: Consumption of Hydroen Peroxide by Catalase. A solution of EP2-19G12 (100 μl of mouse IgG, 20 μM in PBS, pH 7.4) was irradiated with UV light for 30 min, after which time the concentration of hydrogen peroxide was determined by stick test (EM Quant Peroxide Test Sticks) to be 2 mg/liter.

In the case of [2H]O[2H] [Clone D2O, D2O], the “rate of formation of H2O2 by horse IgG with HP (40 μM) in visible light in the presence of additive” value [1] is reported as “increased”.

With N[C@@H](Cc1c[nH]c2ccccc12)C(=O)O [Trp, tryptophan] the “H2O2 production during near-UV irradiation” value ([2]; tryptophan 20 μM, FIG. 11A) was “ca. 0.5 mole equivalents”.

For superoxide dismutase: enzyme, Sigma, the “ability of non-immunoglobulin proteins to reduce ^1O2 / generate H2O2” value [2] was “the same as irradiation of PBS alone; also recorded: do not reduce; also recorded: does not reside”.

For chick ovalbumin: chick-egg ovalbumin, the “ability of non-immunoglobulin proteins to reduce ^1O2 / generate H2O2” value [2] was “one of the most efficient proteins at reducing”.

For CC1=C(CCC(=O)O)c2cc3[nH]c(cc4nc(cc5[nH]c(cc1n2)c(C)c5C(C)O)C(C)=C4C(C)O)c(C)c3CCC(=O)O (stereo not shown) [hematoporphyrin IX], the bactericidal activity ([3]; HPIX 40 μM, white light 1 h, 4 °C) was “negligible bactericidal activity”.

With [N-]=[N+]=[N-].[Na+] [NaN3] the “rate of formation of H2O2 by horse IgG with HP (40 μM) in visible light in the presence of additive” value [1] was “reduced”.

In the case of “β-galactosidase: non-immunoglobulin protein, Sigma”, the “H2O2 generated by photo-production” value ([2]; from its 39 Trp residues, FIG. 8A) is reported as 5.9 mol eq.

For O=C(O)CN(CCN(CC(=O)O)CC(=O)O)CC(=O)O [EDTA], the “effect of presence of EDTA on the survival of bacteria” value ([3]; 2 mM) was “no effect”.

B1: RNase A: non-immunoglobulin protein, Amersham Pharmacia (protein, UniProt P61823 27-150, looked up)
Ribonuclease pancreatic: KETAAAKFERQHMDSSTSAASSSNYCNQMMKSRNLTKDRCKPVNTFVHESLADVQAVCSQKNVACKNGQTNCYQSYSTMSITDCRETGSSKYPNCAYKTTQANKHIIVACEGNPYVPVHFDASV
In the case of B1, the “ability of non-immunoglobulin proteins to reduce ^1O2 / generate H2O2” value [2] is reported as “do not reduce” and the “ability of non-immunoglobulin proteins to reduce ^1O2 / generate H2O2” value ([2]; listed as RNaseA) is reported as “does not reside”.

B2: catalase: enzyme that converts H2O2 to water and molecular oxygen (protein, UniProt P00432 2-527, looked up)
Catalase: ADNRDPASDQMKHWKEQRAAQKPDVLTTGGGNPVGDKLNSLTVGPRGPLLVQDVVFTDEMAHFDRERIPERVVHAKGAGAFGYFEVTHDITRYSKAKVFEHIGKRTPIAVRFSTVAGESGSADTVRDPRGFAVKFYTEDGNWDLVGNNTPIFFIRDALLFPSFIHSQKRNPQTHLKDPDMVWDFWSLRPESLHQVSFLFSDRGIPDGHRHMNGYGSHTFKLVNANGEAVYCKFHYKTDQGIKNLSVEDAARLAHEDPDYGLRDLFNAIATGNYPSWTLYIQVMTFSEAEIFPFNPFDLTKVWPHGDYPLIPVGKLVLNRNPVNYFAEVEQLAFDPSNMPPGIEPSPDKMLQGRLFAYPDTHRHRLGPNYLQIPVNCPYRARVANYQRDGPMCMMDNQGGAPNYYPNSFSAPEHQPSALEHRTHFSGDVQRFNSANDDNVTQVRTFYLKVLNEEQRKRLCENIAGHLKDAQLFIQKKAVKNFSDVHPEYGSRIQALLDKYNEEKPKNAVHTYVQHGSHLSAREKANL
In the case of B2, the “extent of protection against antigen-specific antibodies” value ([3]; catalase 13 mU/mL) is reported as “varied over a wide range”, the “protection against the bactericidal activity of non-specific antibodies” value ([3]; catalase 13 mU/mL) is reported as “complete protection; also recorded: completely attenuated” and the “concentration of H2O2 after catalase” value [4] is reported as 0 mg/L.

Reference: patent US20060292076A1, “Antimicrobial mediated ozone generation” (priority 2002, published 2006)
